Laboratory results as given in US20160279164A1, “High-Molecular Weight Conjugate Of Resorcinol Derivatives” (Nippon Kayaku Kabushiki Kaisha, priority 2006, published 2016).

Test system: mouse colon cancer Colon26
Assay: Anti-tumor effect on mice transplanted with the mouse colon cancer Colon26
Format: in vivo
Details: 5 consecutive days, female CDF1 mice
Excerpt: Tumor of mouse colon cancer, Colon26, maintained by serial subcutaneous subculture in BALB/cA mice, was minced into about 2-mm square blocks, and the blocks were transplanted subcutaneously on the dorsal part of a female CDF1 mice with a trocar. On the 7th day after tumor transplantation, the high-molecular weight conjugate of a resorcinol derivative (compound 1) of the present invention, and as a control, the included resorcinol derivative, 5-(2,4-dihydroxy-5-isopropyl-phenyl)-4-(4-methoxy-phenyl)-2,4-dihydro-[1,2,4]triazol-3-one), were administered intravenously to the mouse tail vein. Compound 1 of the present invention was dissolved in a 5% glucose injectable solution, and was administered once. The resorcinol derivative (the included compound) used as the control, was dissolved in DMSO, and TWEEN80 was added thereto, and then the mixture was diluted with a 5% glucose injectable solution. The dilution was administered once a day for 5 consecutive days. After the administration, the major diameter (L mm) and the minor diameter (W mm) of the tumor were measured regularly, and the tumor volume was calculated by the formula: (L×W^2)/2. Based on the tumor volume of the administration initiation day, the average relative tumor volume for each measurement day was determined (Table 1).

## COc1ccc(-n2c(-c3cc(C(C)C)c(O)cc3O)n[nH]c2=O)cc1 [Included compound, 5-(2,4-dihydroxy-5-isopropyl-phenyl)-4-(4-methoxy-phenyl)-2,4-dihydro-[1,2,4]triazol-3-one]
Day 0 after administration, 50 mg/kg/day i.v.
  average relative tumor volume: 1.0
Day 0 after administration, 100 mg/kg/day i.v.
  average relative tumor volume: 1.0
Day 2 after administration, 50 mg/kg/day i.v.
  average relative tumor volume: 1.6
Day 2 after administration, 100 mg/kg/day i.v.
  average relative tumor volume: 1.1
Day 3 after administration, 50 mg/kg/day i.v.
  average relative tumor volume: 1.6
Day 3 after administration, 100 mg/kg/day i.v.
  average relative tumor volume: 0.7
Day 5 after administration, 50 mg/kg/day i.v.
  average relative tumor volume: 2.5
Day 5 after administration, 100 mg/kg/day i.v.
  average relative tumor volume: 1.0
Day 7 after administration, 50 mg/kg/day i.v.
  average relative tumor volume: 2.5
Day 7 after administration, 100 mg/kg/day i.v.
  average relative tumor volume: 3.3
Day 9 after administration, 50 mg/kg/day i.v.
  average relative tumor volume: 6.7
Day 9 after administration, 100 mg/kg/day i.v.
  average relative tumor volume: 5.0
Day 12 after administration, 50 mg/kg/day i.v.
  average relative tumor volume: 10
Day 12 after administration, 100 mg/kg/day i.v.
  average relative tumor volume: 11
Day 14 after administration, 50 mg/kg/day i.v.
  average relative tumor volume: 13
Day 14 after administration, 100 mg/kg/day i.v.
  average relative tumor volume: 12
